Results taken from US20230399312A1, “SUBSTITUTED PYRIMIDINES AND METHODS OF USE” (THERAVANCE BIOPHARMA R&D IP, LLC, priority 2020, published 2023).

Experiments:
[1] = molecular target: T1, recombinant human ALK5 (TGF-βR1) protein (Homo sapiens, UniProt P36897); test: Biochemical ALK5 (TGF-βR1) assay to measure pKi (LANCE Ultra ULight kinase assay); details: apparent pKi, converted from pIC50 by Cheng-Prusoff
T1 construct: purchased Life Technologies PR9075A
T1 sequence (P36897 34-503): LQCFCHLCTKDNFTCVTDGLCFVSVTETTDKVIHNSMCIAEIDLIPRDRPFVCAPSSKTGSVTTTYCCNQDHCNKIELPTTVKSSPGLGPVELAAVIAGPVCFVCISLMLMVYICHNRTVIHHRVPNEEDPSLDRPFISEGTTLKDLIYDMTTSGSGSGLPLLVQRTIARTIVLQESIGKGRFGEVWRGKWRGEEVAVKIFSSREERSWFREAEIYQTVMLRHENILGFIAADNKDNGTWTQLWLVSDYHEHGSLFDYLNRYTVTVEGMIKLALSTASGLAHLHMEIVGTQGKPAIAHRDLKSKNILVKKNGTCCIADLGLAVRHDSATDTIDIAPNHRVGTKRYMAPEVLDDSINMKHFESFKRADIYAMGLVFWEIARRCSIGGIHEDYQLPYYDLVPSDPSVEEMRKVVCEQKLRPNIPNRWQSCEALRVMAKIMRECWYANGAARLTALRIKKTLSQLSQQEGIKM
Summary of the method: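 Europium TR-FRET kinase assay: the enzyme is exposed to compound for 60 min at room temperature, and reaction with ATP runs 60 min at 37 °C. Percent inhibition relative to DMSO and SD-208 controls gives pIC50, which is converted to pKi.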

[2] = test system: TGF-β-stimulated SMAD3 phosphorylation in BEAS-2B cells; test: Cellular ALK5 potency assay, inhibition of TGF-β stimulated pSMAD3 formation in BEAS-2B cells; type: cell-based; details: Homo sapiens, pSMAD3, TGF-β 10 ng/mL, read-out: BEAS2B pIC50 (converted)
Summary of the method: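 Potency is expressed as pIC50, based on dose-dependent reduction of TGF-β-induced pSMAD3 AlphaLISA signal relative to stimulated cells without compound. BEAS-2B cells received compound 1 h before a 30 min, 10 ng/mL TGF-β challenge.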

- Ki [1]: 0.0398 to 0.316 nM
SMILES: Cc1cccc(-c2nc(Nc3ccnc(Nc4ccc(NC5CCNCC5)cc4)n3)c3cccn3n2)n1 [Compound 1042, N4-[2-(6-methyl-2-pyridyl)pyrrolo[2,1-f][1,2,4]triazin-4-yl]-N2-[4-(4-piperidylamino)phenyl] pyrimidine-2,4-diamine]
- IC50 [2]: 25.1 to 158 nM
